# Experimental data taken from patent US9321773B2, “Compounds” (Respivert Ltd, priority 2009, dated 2016).
# Where two headings read alike, the source gives them in different places.
# Columns and labels:
# [1] = tested on: H2O2 induced pAkt in D-U937 cells; experiment: PI3Kδ Cell Based Assay (H2O2 induced pAkt); conditions: Homo sapiens
# In short: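 Read-out is the pAkt/total Akt signal ratio, measured with anti-pAkt and anti-pan-Akt antibodies after H2O2 stimulation. Cells were U937 monocytes given PMA (100 ng/mL) for 48 to 72 hr. IC50 values fitted from compound serial dilutions.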
# [2] = Stereochemical analysis by chiral stationary phase HPLC (atropisomerism); assay type: physicochemical; conditions: chiral stationary phase HPLC (16 different conditions for the examples)
# Method: Each of these mobile phase are compatible with the column packings referred to above, providing sixteen different solvent and stationary phase permutations. Modifiers such as triethylamine (0.1%), formic acid (0.1%) may be added to improve the resolution
# Semi-preparative Chiral Stationary Phase LC-UV was performed on a Gilson preparative modular system using a Daicel Chiralpak AD semi-prep column ([…], 20×250 mm) and a flow rate of 18 mL/min eluting with an isocratic method over 20 min using […] heptane:IPA and 0.1% triethylamine employing an injection volume of 1.0 mL.
# recombinant PI3 kinase γ = recombinant PI3 kinase γ (Homo sapiens (Human), UniProt P48736); experiment: Enzyme Inhibition Assay (HTRF PI3K enzyme assay, TR-FRET); assay type: biochemical; conditions: activity range; read-out: PI3 Kinase Inhibition IC50 values at stated Isozyme γ
# In short: (§1)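 TR-FRET readout after 15-18 hr at RT with biotinylated PIP3, GST-tagged GRP1 PH domain and europium/APC fluorophores; product PIP3 displaces the tracer and lowers the signal. Beforehand, compound and PIP2 were reacted for 2 hr at RT with human recombinant PI3Kα, δ or γ.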
# recombinant PI3 kinase δ = recombinant PI3 kinase δ (Homo sapiens (Human), UniProt O00329); experiment: as above; assay type: biochemical; conditions: activity range; read-out: PI3 Kinase Inhibition IC50 values at stated Isozyme δ
# In short: as §1
# recombinant PI3 kinase α = recombinant PI3 kinase α (Homo sapiens (Human), UniProt P42336); experiment: as above; assay type: biochemical; conditions: activity range; read-out: PI3 Kinase Inhibition IC50 values at stated Isozyme α
# In short: as §1
# [3] = tested on: PMA-differentiated U937 cells; experiment: MTT Assay (cell viability); assay type: cell-based, Human; conditions: percentage loss of cell viability; for Cell Viability MTT Assay in D-U937 cells at 4 hr: 4 hr in 5% FCS; for Cell Viability MTT Assay in D-U937 cells at 24 hr: 24 hr in 10% FCS
# In short: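 Differentiated U937 cells treated with compound for 4 hr (5% FCS) or 24 hr (10% FCS), then given MTT for 1 hr; formazan dissolved in DMSO and absorbance read at 550 nm. Viability loss expressed as % versus 0.5% DMSO vehicle.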
# [4] = dU937, activity range, D-U937 cells, read-out: Cellular Activity IC50 values (H2O2 induced pAkt D-U937 Cells)
# [5] = dU937, read-out: Cellular Activity IC50 values (H2O2 induced pAkt D-U937 Cells)
# recombinant PI3 kinase α, sequence (P42336 whole entry): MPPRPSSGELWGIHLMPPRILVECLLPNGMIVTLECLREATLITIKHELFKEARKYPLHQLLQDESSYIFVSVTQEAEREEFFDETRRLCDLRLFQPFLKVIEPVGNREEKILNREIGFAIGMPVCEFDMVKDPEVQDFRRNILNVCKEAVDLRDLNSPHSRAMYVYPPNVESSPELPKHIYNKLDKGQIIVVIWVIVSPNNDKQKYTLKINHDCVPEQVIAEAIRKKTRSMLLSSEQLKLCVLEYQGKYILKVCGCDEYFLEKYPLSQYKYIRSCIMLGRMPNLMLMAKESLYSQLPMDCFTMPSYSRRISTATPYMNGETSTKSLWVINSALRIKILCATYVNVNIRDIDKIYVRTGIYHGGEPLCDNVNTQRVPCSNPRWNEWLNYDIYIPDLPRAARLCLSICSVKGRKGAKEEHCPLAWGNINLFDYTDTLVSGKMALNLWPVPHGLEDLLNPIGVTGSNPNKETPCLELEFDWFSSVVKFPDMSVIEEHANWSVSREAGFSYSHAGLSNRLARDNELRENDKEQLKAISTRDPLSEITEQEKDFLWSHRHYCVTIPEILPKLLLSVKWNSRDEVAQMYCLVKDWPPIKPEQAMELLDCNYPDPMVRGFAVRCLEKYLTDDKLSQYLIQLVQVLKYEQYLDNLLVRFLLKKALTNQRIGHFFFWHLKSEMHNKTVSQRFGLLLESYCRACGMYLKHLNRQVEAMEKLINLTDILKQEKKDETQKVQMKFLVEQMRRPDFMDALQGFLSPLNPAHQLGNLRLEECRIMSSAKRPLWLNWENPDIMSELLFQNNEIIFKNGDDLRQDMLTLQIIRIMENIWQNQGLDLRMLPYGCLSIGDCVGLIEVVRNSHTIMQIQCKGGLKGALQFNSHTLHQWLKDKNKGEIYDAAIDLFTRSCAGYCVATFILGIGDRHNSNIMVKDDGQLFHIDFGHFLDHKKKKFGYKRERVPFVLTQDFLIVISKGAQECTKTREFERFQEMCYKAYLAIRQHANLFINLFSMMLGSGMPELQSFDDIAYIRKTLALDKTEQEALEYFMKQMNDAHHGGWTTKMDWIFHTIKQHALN
# recombinant PI3 kinase α, sequence (P27986 whole entry partner): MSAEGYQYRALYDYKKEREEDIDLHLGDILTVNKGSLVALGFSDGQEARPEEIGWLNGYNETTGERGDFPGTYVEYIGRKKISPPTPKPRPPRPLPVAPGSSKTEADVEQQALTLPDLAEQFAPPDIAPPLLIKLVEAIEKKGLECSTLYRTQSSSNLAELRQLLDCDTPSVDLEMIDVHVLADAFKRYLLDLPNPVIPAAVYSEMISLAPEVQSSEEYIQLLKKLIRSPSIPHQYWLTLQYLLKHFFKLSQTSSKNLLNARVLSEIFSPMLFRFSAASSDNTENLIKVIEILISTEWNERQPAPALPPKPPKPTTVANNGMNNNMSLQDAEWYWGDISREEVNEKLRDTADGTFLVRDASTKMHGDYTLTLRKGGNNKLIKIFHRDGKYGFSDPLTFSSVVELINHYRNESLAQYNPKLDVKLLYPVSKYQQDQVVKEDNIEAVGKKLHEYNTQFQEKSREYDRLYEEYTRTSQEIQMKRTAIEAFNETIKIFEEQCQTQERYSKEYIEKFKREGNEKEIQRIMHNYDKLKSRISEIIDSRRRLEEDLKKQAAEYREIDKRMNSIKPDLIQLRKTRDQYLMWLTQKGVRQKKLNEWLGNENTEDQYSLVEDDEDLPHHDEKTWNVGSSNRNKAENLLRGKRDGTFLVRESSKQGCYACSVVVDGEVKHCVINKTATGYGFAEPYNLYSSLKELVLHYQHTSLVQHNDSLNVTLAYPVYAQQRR
# recombinant PI3 kinase δ, sequence (O00329 whole entry): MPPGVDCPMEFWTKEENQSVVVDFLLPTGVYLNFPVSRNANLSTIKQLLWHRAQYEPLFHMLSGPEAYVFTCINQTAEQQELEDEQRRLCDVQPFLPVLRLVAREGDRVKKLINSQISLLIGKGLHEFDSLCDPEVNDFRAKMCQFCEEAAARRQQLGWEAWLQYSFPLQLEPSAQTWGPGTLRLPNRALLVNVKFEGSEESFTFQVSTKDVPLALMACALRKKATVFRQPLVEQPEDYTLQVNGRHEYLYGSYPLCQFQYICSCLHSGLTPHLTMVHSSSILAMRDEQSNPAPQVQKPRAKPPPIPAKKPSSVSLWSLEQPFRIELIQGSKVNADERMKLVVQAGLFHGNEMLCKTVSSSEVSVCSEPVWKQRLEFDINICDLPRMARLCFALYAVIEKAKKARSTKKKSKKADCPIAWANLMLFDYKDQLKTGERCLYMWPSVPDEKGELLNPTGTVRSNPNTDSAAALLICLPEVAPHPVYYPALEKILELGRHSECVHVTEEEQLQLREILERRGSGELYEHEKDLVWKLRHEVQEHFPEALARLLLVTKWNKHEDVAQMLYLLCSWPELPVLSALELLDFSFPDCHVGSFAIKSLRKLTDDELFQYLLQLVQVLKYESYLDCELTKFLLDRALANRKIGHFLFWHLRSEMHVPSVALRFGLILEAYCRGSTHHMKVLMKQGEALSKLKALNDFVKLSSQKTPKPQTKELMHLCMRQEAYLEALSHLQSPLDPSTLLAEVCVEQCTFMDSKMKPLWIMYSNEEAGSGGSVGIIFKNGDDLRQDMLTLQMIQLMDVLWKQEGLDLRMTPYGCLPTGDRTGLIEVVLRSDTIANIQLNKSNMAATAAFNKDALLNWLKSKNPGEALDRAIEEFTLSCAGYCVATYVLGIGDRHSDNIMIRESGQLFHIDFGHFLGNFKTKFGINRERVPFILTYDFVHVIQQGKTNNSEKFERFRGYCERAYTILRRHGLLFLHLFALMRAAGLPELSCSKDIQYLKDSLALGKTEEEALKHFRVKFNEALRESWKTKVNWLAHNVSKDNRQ
# recombinant PI3 kinase δ, sequence (P27986 whole entry partner): as the sequence (P27986 whole entry partner) above
# recombinant PI3 kinase γ, sequence (P48736 whole entry, the tested form may be a part): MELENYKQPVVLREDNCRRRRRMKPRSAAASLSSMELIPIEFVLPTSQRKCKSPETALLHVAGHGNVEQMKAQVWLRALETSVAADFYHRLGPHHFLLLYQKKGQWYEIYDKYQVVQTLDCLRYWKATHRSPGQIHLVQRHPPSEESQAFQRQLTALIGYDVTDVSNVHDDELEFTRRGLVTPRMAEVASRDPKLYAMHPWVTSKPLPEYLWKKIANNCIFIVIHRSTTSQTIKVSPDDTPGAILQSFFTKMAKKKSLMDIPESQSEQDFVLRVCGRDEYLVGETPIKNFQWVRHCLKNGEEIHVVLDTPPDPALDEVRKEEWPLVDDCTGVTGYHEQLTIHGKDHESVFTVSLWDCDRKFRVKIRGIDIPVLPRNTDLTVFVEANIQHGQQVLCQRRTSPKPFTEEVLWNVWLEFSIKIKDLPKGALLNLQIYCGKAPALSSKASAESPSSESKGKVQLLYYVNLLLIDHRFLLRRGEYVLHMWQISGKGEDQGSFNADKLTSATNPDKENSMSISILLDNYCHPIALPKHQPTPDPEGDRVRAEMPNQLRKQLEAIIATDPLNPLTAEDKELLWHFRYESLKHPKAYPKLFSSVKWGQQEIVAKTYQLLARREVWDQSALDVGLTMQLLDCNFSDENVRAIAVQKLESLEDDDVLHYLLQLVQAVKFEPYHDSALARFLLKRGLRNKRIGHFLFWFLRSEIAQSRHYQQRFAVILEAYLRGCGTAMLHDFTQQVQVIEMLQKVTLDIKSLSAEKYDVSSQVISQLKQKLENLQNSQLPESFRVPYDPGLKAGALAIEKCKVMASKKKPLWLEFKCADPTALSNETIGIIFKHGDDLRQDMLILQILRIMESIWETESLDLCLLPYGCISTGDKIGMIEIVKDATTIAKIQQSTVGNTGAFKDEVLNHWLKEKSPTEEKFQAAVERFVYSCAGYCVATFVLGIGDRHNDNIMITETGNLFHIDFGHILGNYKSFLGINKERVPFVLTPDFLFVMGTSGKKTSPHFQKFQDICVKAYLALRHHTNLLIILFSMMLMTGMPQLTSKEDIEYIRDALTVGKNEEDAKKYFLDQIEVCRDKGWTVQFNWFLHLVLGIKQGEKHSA
"IC50 [1, 4]",IC50 (recombinant PI3 kinase γ),IC50 (recombinant PI3 kinase δ),IC50 (recombinant PI3 kinase α),Compound,atropisomerism by chiral stationary phase HPLC [2],Cell Viability MTT Assay in D-U937 cells at 4 hr [3],Cell Viability MTT Assay in D-U937 cells at 24 hr [3],"IC50 [1, 5]"
< 10 nM,50 to 1000 nM,< 50 nM,50 to 1000 nM,"C#Cc1cccc2nc(Cn3nc(-c4cccc(O)c4)c4c(N)ncnc43)n(Cc3ccc(S(C)(=O)=O)cc3)c(=O)c12 [Example 19, 2-((4-Amino-3-(3-hydroxyphenyl)-1H-pyrazolo[3,4-d]pyrimidin-1-yl)methyl)-5-ethynyl-3-(4-(methylsulfonyl)benzyl)quinazolin-4(3H)-one]",no evidence for atropisomerism was observed,− (− <30%),− (− <30%),
< 10 nM,50 to 1000 nM,< 50 nM,50 to 1000 nM,"C#Cc1cccc2nc(Cn3nc(-c4cccc(O)c4)c4c(N)ncnc43)n(Cc3cccc(S(C)(=O)=O)c3)c(=O)c12 [Example 23, 2-((4-Amino-3-(3-hydroxyphenyl)-1H-pyrazolo[3,4-d]pyrimidin-1-yl)methyl)-5-ethynyl-3-(3-(methylsulfonyl)benzyl)quinazolin-4(3H)-one]",no evidence for atropisomerism was observed,− (− <30%),− (− <30%),
< 10 nM,> 1000 nM,< 50 nM,50 to 1000 nM,"C#Cc1cccc2nc(Cn3nc(-c4cccc(O)c4)c4c(N)ncnc43)n(Cc3cccc(C(F)(F)F)c3)c(=O)c12 [Example 17, 2-((4-Amino-3-(3-hydroxyphenyl)-1H-pyrazolo[3,4-d]pyrimidin-1-yl)methyl)-5-ethynyl-3-(3-(trifluoromethyl)benzyl)quinazolin-4(3H)-one]",no evidence for atropisomerism was observed,− (− <30%),− (− <30%),
< 10 nM,50 to 1000 nM,< 50 nM,50 to 1000 nM,"C#Cc1cccc2nc(Cn3nc(-c4ccc(O)cc4)c4c(N)ncnc43)n(Cc3cccc(Cl)c3F)c(=O)c12 [Example 33, 2-((4-Amino-3-(4-hydroxyphenyl)-1H-pyrazolo[3,4-d]pyrimidin-1-yl)methyl)-3-(3-chloro-2-fluorobenzyl)-5-ethynylquinazolin-4(3H)-one]",no evidence for atropisomerism was observed,− (− <30%),− (− <30%),
< 10 nM,50 to 1000 nM,< 50 nM,50 to 1000 nM,"C#Cc1cccc2nc(Cn3nc(-c4cccc(O)c4)c4c(N)ncnc43)n(Cc3cccc(C#N)c3)c(=O)c12 [Example 24, 3-((2-((4-Amino-3-(3-hydroxyphenyl)-1H-pyrazolo[3,4-d]pyrimidin-1-yl)methyl)-5-ethynyl-4-oxoquinazolin-3(4H)-yl)methyl)benzonitrile]",no evidence for atropisomerism was observed,− (− <30%),− (− <30%),
< 10 nM,50 to 1000 nM,< 50 nM,50 to 1000 nM,"C#Cc1cccc2nc(Cn3nc(-c4ccc(O)cc4)c4c(N)ncnc43)n(Cc3cccc(OC)c3)c(=O)c12 [Example 14, 2-((4-Amino-3-(4-hydroxyphenyl)-1H-pyrazolo[3,4-d]pyrimidin-1-yl)methyl)-5-ethynyl-3-(3-methoxybenzyl)quinazolin-4(3H)-one]",no evidence for atropisomerism was observed,− (− <30%),− (− <30%),
< 10 nM,50 to 1000 nM,< 50 nM,50 to 1000 nM,"C#Cc1cccc2nc(Cn3nc(-c4ccc(O)cc4)c4c(N)ncnc43)n(Cc3ccc(S(C)(=O)=O)cc3)c(=O)c12 [Example 20, 2-((4-Amino-3-(4-hydroxyphenyl)-1H-pyrazolo[3,4-d]pyrimidin-1-yl)methyl)-5-ethynyl-3-(4-(methylsulfonyl)benzyl)quinazolin-4(3H)-one]",no evidence for atropisomerism was observed,− (− <30%),− (− <30%),
< 10 nM,50 to 1000 nM,< 50 nM,50 to 1000 nM,"C#Cc1cccc2nc(Cn3nc(-c4ccc(O)cc4)c4c(N)ncnc43)n(Cc3cccc(C(F)(F)F)c3)c(=O)c12 [Example 16, 2-((4-Amino-3-(4-hydroxyphenyl)-1H-pyrazolo[3,4-d]pyrimidin-1-yl)methyl)-5-ethynyl-3-(3-(trifluoromethyl)benzyl)quinazolin-4(3H)-one]",no evidence for atropisomerism was observed,− (− <30%),− (− <30%),
< 10 nM,50 to 1000 nM,< 50 nM,50 to 1000 nM,"C#Cc1cccc2nc(Cn3nc(-c4cccc(O)c4)c4c(N)ncnc43)n(Cc3cc(C)on3)c(=O)c12 [Example 31, 2-((4-Amino-3-(3-hydroxyphenyl)-1H-pyrazolo[3,4-d]pyrimidin-1-yl)methyl)-5-ethynyl-3-((5-methylisoxazol-3-yl)methyl)quinazolin-4(3H)-one]",no evidence for atropisomerism was observed,− (− <30%),− (− <30%),
< 10 nM,50 to 1000 nM,< 50 nM,50 to 1000 nM,"C#Cc1cccc2nc(Cn3nc(-c4cccc(O)c4)c4c(N)ncnc43)n(Cc3ccc(Cl)cc3)c(=O)c12 [Example 25, 2-((4-Amino-3-(3-hydroxyphenyl)-1H-pyrazolo[3,4-d]pyrimidin-1-yl)methyl)-3-(4-chlorobenzyl)-5-ethynylquinazolin-4(3H)-one]",no evidence for atropisomerism was observed,− (− <30%),− (− <30%),
< 10 nM,50 to 1000 nM,< 50 nM,50 to 1000 nM,"C#Cc1cccc2nc(Cn3nc(-c4ccc(O)cc4)c4c(N)ncnc43)n(Cc3ccc(Cl)cc3)c(=O)c12 [Example 18, 2-((4-Amino-3-(4-hydroxyphenyl)-1H-pyrazolo[3,4-d]pyrimidin-1-yl)methyl)-3-(4-chlorobenzyl)-5-ethynyl quinazolin-4(3H)-one]",no evidence for atropisomerism was observed,− (− <30%),− (− <30%),
< 10 nM,50 to 1000 nM,< 50 nM,50 to 1000 nM,"C#Cc1cccc2nc(Cn3nc(-c4ccc(O)cc4)c4c(N)ncnc43)n(Cc3c(F)cccc3F)c(=O)c12 [Example 34, 2-((4-Amino-3-(4-hydroxyphenyl)-1H-pyrazolo[3,4-d]pyrimidin-1-yl)methyl)-3-(2,6-difluorobenzyl)-5-ethynylquinazolin-4(3H)-one]",no evidence for atropisomerism was observed,− (− <30%),− (− <30%),

Compound,"IC50 [1, 4]",IC50 (recombinant PI3 kinase γ),IC50 (recombinant PI3 kinase δ),IC50 (recombinant PI3 kinase α),atropisomerism by chiral stationary phase HPLC [2],Cell Viability MTT Assay in D-U937 cells at 4 hr [3],Cell Viability MTT Assay in D-U937 cells at 24 hr [3],"IC50 [1, 5]"
"C#Cc1cccc2nc(Cn3nc(-c4ccc(O)cc4)c4c(N)ncnc43)n(Cc3ccccc3F)c(=O)c12 [Example 13, 2-((4-Amino-3-(4-hydroxyphenyl)-1H-pyrazolo[3,4-d]pyrimidin-1-yl)methyl)-5-ethynyl-3-(2-fluorobenzyl) quinazolin-4(3H)-one]",,50 to 1000 nM,< 50 nM,50 to 1000 nM,no evidence for atropisomerism was observed,− (− <30%),− (− <30%),< 10 nM
"C#Cc1cccc2nc(Cn3nc(-c4cccc(O)c4)c4c(N)ncnc43)n(Cc3cccc(Cl)c3)c(=O)c12 [Example 10, 2-((4-Amino-3-(3-hydroxyphenyl)-1H-pyrazolo[3,4-d]pyrimidin-1-yl)methyl)-3-(3-chlorobenzyl)-5-ethynyl quinazolin-4(3H)-one]",,50 to 1000 nM,< 50 nM,50 to 1000 nM,no evidence for atropisomerism was observed,− (− <30%),− (− <30%),< 10 nM
